Experimental data taken from ChEMBL document CHEMBL3525915, “Elucidation of a novel bioactivation pathway of a 3,4-unsubstituted isoxazole in human liver microsomes: formation of a glutathione adduct of a cyanoacrolein derivative after isoxazole ring opening” (Drug Metab Dispos, 2011).
One block for each compound: values may come before it.

Legend:
[1] = Drug level in 0.1 N NaOH aqueous solution assessed as compound formation treated with 40 uM N-((2-isopropyl-7-methyl-1-oxoisoindolin-5-yl)methyl)isoxazole-5-carboxamide for 20 mins by LC-MS/MS analysis; assay type: physicochemical; settings: buffer
Liver microsome [2] = assay: Drug metabolism in human liver microsomes treated with 20 uM N-((2-isopropyl-7-methyl-1-oxoisoindolin-5-yl)methyl)isoxazole-5-carboxamide assessed compound formation in presence of NADPH using [13C]-labeled CH3OH drug stock solution at 37 degC incubated for 1 hr by liquid chromatography; assay type: ADME
Liver microsome [3] = assay: Drug level in human liver microsomes assessed as compound formation treated with 20 uM N-((2-isopropyl-7-methyl-1-oxoisoindolin-5-yl)methyl)isoxazole-5-carboxamide (drug stock solution contained 1% acetonitrile) LC-MS/MS analysis in presence of NADPH and GSH; assay type: ADME
[4] = Drug level in 0.1 N NaOH aqueous solution assessed as compound formation treated with 40 uM N-((2-isopropyl-7-methyl-1-oxoisoindolin-5-yl)methyl)isoxazole-5-carboxamide for 20 mins at pH 7.5 by LC-MS/MS analysis in presence of formaldehyde and GSH; assay type: physicochemical; settings: buffer, pH 7.5, 20 min
Liver microsome [5] = assay: Drug level in human liver microsomes assessed as compound formation treated with 20 uM N-((2-isopropyl-7-methyl-1-oxoisoindolin-5-yl)methyl)isoxazole-5-carboxamide (drug stock solution contained 1% methanol) LC-MS/MS analysis in presence of NADPH and GSH; assay type: ADME
Liver microsome [6] = assay: Retention time of the compound in human liver microsomes in presence of NADPH at 37 degC incubated for 1 hr by liquid chromatography; assay type: ADME
Liver microsome [7] = assay: Drug metabolism in human liver microsomes assessed ratio of sum peak areas of metabolite M1 and M2 to peak area of internal standard at 20 uM in presence of NADPH and 1 mM 1-ABT at 37 degC incubated for 1 hr by liquid chromatography; assay type: ADME
Liver microsome [8] = assay: Drug metabolism in human liver microsomes assessed ratio of sum peak areas of metabolite M1 and M2 to peak area of internal standard at 20 uM in presence of NADPH and in absence of 1 mM 1-ABT at 37 degC incubated for 1 hr by liquid chromatography; assay type: ADME
Liver microsome [9] = assay: Drug metabolism in human liver microsomes assessed metabolite formation at 20 uM in absence of NADPH at 37 degC incubated for 1 hr by liquid chromatography; assay type: ADME
Liver microsome [10] = assay: Drug metabolism in human liver microsomes assessed as (Z)-3-cyano-2-hydroxy-N-((2-isopropyl-7-methyl-1-oxoisoindolin-5-yl)methyl)acrylamide formation at 20 uM for 1 hr by LC-MS/MS analysis in presence of NADPH; assay type: ADME
Liver microsome [11] = assay: Drug metabolism in human liver microsomes assessed as 2-amino-5-(1-(carboxymethylamino)-3-(3-cyano-5-((2-isopropyl-7-methyl-1-oxoisoindolin-5-yl)methylamino)-4,5-dioxopentan-2-ylthio)-1-oxopropan-2-ylamino)-5-oxopentanoic acid formation at 20 uM (drug stock solution contained ethanol) by LC-MS/MS analysis in presence of NADPH; assay type: ADME
Liver microsome [12] = assay: Drug metabolism in human liver microsomes assessed as metabolite formation at 20 uM (drug stock solution contained 1% acetonitrile) LC-MS/MS analysis in presence of NADPH and GSH; assay type: ADME
Liver microsome [13] = assay: Drug level in human liver microsomes assessed as compound formation treated with 20 uM N-((2-isopropyl-7-methyl-1-oxoisoindolin-5-yl)methyl)isoxazole-5-carboxamide for 1 hr by LC-MS/MS analysis in presence of NADPH; assay type: ADME
Liver microsome [14] = assay: Drug level in human liver microsomes assessed as compound formation treated with 20 uM N-((2-isopropyl-7-methyl-1-oxoisoindolin-5-yl)methyl)isoxazole-5-carboxamide (drug stock solution contained 1% ethanol) LC-MS/MS analysis in presence of NADPH; assay type: ADME
Liver microsome [15] = assay: Drug level in human liver microsomes assessed as compound formation treated with 20 uM N-((2-isopropyl-7-methyl-1-oxoisoindolin-5-yl)methyl)isoxazole-5-carboxamide (drug stock solution contained 1% acetonitrile) LC-MS/MS analysis in presence of NADPH; assay type: ADME

Compound: Cc1cc(CNC(=O)C(=O)C(C#N)CSC[C@H](NC(=O)CC[C@H](N)C(=O)O)C(=O)NCC(=O)O)cc2c1C(=O)N(C(C)C)C2 (some centres not stated)
Drug metabolism [1]: metabolite_detected | Drug metabolism (Liver microsome [2]): metabolite_detected | Drug metabolism (Liver microsome [3]): metabolite_not_detected | Drug metabolism [4]: metabolite_detected | Drug metabolism (Liver microsome [5]): metabolite_detected | Retention_time (Liver microsome [6]): 9.72 min

Compound: Cc1cc(CNC(=O)C(=O)C(C#N)C(C)SC[C@H](NC(=O)CC[C@H](N)C(=O)O)C(=O)NCC(=O)O)cc2c1C(=O)N(C(C)C)C2 (single isomer, unassigned; diastereomer 1)
Retention_time (Liver microsome [6]): 10.82 min

Compound: Cc1cc(CNC(=O)C(=O)C(C#N)C(C)SC[C@H](NC(=O)CC[C@H](N)C(=O)O)C(=O)NCC(=O)O)cc2c1C(=O)N(C(C)C)C2 (single isomer, unassigned; diastereomer 2)
Drug metabolism (Liver microsome [14]): metabolite_detected | Drug metabolism (Liver microsome [15]): metabolite_not_detected | Retention_time (Liver microsome [6]): 10.08 min

Continued, values first:

Ratio (Liver microsome [7]): 0.128 | Ratio (Liver microsome [8]): 1.22 | Drug metabolism (Liver microsome [9]): metabolite_not_detected | Drug metabolism (Liver microsome [10]): metabolite_detected | Drug metabolism (Liver microsome [11]): metabolite_detected | Retention_time (Liver microsome [6]): 17.06 min | Drug metabolism (Liver microsome [12]): metabolite_not_detected
Compound: Cc1cc(CNC(=O)c2ccno2)cc2c1C(=O)N(C(C)C)C2

Drug metabolism [1]: metabolite_detected | Drug metabolism (Liver microsome [13]): metabolite_detected | Retention_time (Liver microsome [6]): 13.55 min
Compound: Cc1cc(CNC(=O)/C(O)=C/C#N)cc2c1C(=O)N(C(C)C)C2

Drug metabolism [1]: metabolite_detected | Retention_time (Liver microsome [6]): 12.69 min
Compound: Cc1cc(CNC(=O)C(=O)CC#N)cc2c1C(=O)N(C(C)C)C2
